Test results reported in patent publication EP0759299B1, “Potentiation of serotonin response” (ELI LILLY AND COMPANY, priority 1995, dated 1997).

Experiments:
Format in all cases: in vivo, Sprague-Dawley rats
DA = assay: Microdialysis assay of monoamines in hypothalamus of conscious rats: DA; settings: percent of baseline, pindolol s.c. infusion 50 mg/kg/hr from 120 min, single animal
Protocol: (§1) A David Kopf stereotaxic instrument was used to implant the probe unilaterally in the hypothalamus at coordinates rostral -1.5 mm, lateral -1.3 mm, and ventral -9.0 mm (Paxinos and Watson, 1986). After a 48 hour recovery period, rats were placed in a large plastic bowl with a mounted liquid swivel system (CMA/120 system for freely moving animals, Bioanalytical Systems, West Lafayette, IN). Filtered artificial cerebrospinal fluid (CSF) (150 mM NaCl, 3.0 mM KCl, 1.7 mM CaCl2, and 0.9 mM MgCl2) was perfused through the probe at a rate of […]. The output dialysate line was fitted to a tenport HPLC valve with a 20 µl loop. At the end of each 30 minute sampling period, dialysate collected in the loop was injected on an analytical column (Spherisorb 3 µ ODS2, 2X150 mm, Keystone Scientific).
(§2) The method used to measure monoamines was as described by Perry and Fuller (1992). Briefly, dialysate collected in the 20 µl loop was assayed for 5-HT, NE and DA. The 20 µl injection went onto the column with a mobile phase which resolved NE, DA, and 5-HT: 75 mM potassium acetate, 0.5 mM ethylenediaminetetraacetic acid, 1.4 mM sodium octanesulfonic acid and 8% methanol, pH 4.9. The mobile phase for the amine column was delivered with a flow programmable pump at an initial flow rate of 0.2 ml/min increasing to 0.3 ml/min at 5 min then decreasing back to 0.2 ml/min at 26 min with a total run time of 30 min. Flow programming was used to elute the 5-HT within a 25 min time period. The electrochemical detector (EG&G, Model 400) for the amine column was set at a potential of 400 mV and a sensitivity of 0.2 nA/V. The data was collected and analyzed with a Hewlett-Packard HP1000 chromatography system which measured peak heights and calculated sample concentrations. Basal levels were measured for at least 90 minutes prior to drug administration.
(§3) Extracellular levels of the amines in microdialysates were calculated by comparing peak heights with those of 50 pmole standards. The mean value of the four samples immediately preceding drug administration served as the basal level for each experiment and data was converted to percent of basal. Paired t-tests were used to compare the mean of the basal values from the time point immediately preceding drug administration to those of each time point thereafter.

NE = assay: Microdialysis assay of monoamines in hypothalamus of conscious rats: NE; settings: percent of baseline, pindolol s.c. infusion 50 mg/kg/hr from 120 min, single animal
Protocol: as §1, §2
Extracellular levels of the amines in microdialysates were calculated by comparing peak heights with those of 50 pmole standards. […]

5-HT = assay: Microdialysis assay of monoamines in hypothalamus of conscious rats: 5-HT; settings: L-tryptophan 100 mg/kg i.p. at 150 min, single animal
Protocol: as §1, §2, §3

SMILES	DA (%) (DA; Test 2, 150 min)	DA (%) (DA; Test 2, 180 min)	DA (%) (DA; Test 2, 210 min)	DA (%) (DA; Test 2, 240 min)	NE (%) (NE; Test 2, 150 min)	NE (%) (NE; Test 2, 210 min)	NE (%) (NE; Test 2, 240 min)	5-HT (5-HT; Test 1, 180 min)	5-HT (5-HT; Test 1, 210 min)	5-HT (5-HT; Test 1, 240 min)	5-HT (5-HT; Test 1, 270 min)
CC(C)NCC(O)COc1cccc2[nH]ccc12 (racemic) [pindolol, 4-(2-hydroxy-3-isopropylaminopropoxy)-indole]	87.2	73.2	70.3	68.5	221.5	232.5	261.9				
N[C@@H](Cc1c[nH]c2ccccc12)C(=O)O [L-tryptophan]								88.5% of basal	83.6% of basal	76.3% of basal	73.9% of basal
